Source: ChEMBL document CHEMBL1212740, “Long-lasting enfuvirtide carrier pentasaccharide conjugates with potent anti-human immunodeficiency virus type 1 activity” (Antimicrob Agents Chemother, 2010)
pEC50: −log10 of the molar value.

How the values were obtained:
[1] = test system: Human immunodeficiency virus 1; assay: Antiviral activity against HIV1 NL4.3 in human PBMC assessed as p24 antigen level by ELISA; format: functional, organism-based; settings: Human immunodeficiency virus 1, NL4.3
[2] = test system: Human immunodeficiency virus 1; assay: Antiviral activity against HIV1 Ba-L in human PBMC assessed as p24 antigen level by ELISA; format: functional, organism-based; settings: Human immunodeficiency virus 1, Ba-L
[3] = test system: Human immunodeficiency virus 1; assay: Antiviral activity against HIV1 BZ167 in human PBMC assessed as p24 antigen level by ELISA; format: functional, organism-based; settings: Human immunodeficiency virus 1, BZ167
[4] = test system: Human immunodeficiency virus 1; assay: Antiviral activity against HIV1 strain I-2496 in human PBMC assessed as p24 antigen level by ELISA; format: functional, organism-based; settings: Human immunodeficiency virus 1, I-2496
[5] = test system: Human immunodeficiency virus 1; assay: Antiviral activity against HIV1 UG273 clade A, R5 in human PBMC assessed as p24 antigen level by ELISA; format: functional, organism-based; settings: Human immunodeficiency virus 1, UG273
[6] = test system: Human immunodeficiency virus 1; assay: Antiviral activity against HIV1 US2 clade B, R5 in human PBMC assessed as p24 antigen level by ELISA; format: functional, organism-based; settings: Human immunodeficiency virus 1, US2
[7] = test system: Human immunodeficiency virus 1; assay: Antiviral activity against HIV1 ETH2220 in human PBMC assessed as p24 antigen level by ELISA; format: functional, organism-based; settings: Human immunodeficiency virus 1, ETH2220
[8] = test system: Human immunodeficiency virus 1; assay: Antiviral activity against HIV1 DJ259 in human PBMC assessed as p24 antigen level by ELISA; format: functional, organism-based; settings: Human immunodeficiency virus 1, DJ259
[9] = test system: Human immunodeficiency virus 1; assay: Antiviral activity against HIV1 3B/LA1 infected in human CD4+ T-cell assessed as inhibition of giant cell formation; format: functional, organism-based; settings: Human immunodeficiency virus 1, 3B/LA1, CD4+ T cell
[10] = test system: Human immunodeficiency virus 2; assay: Antiviral activity against Human immunodeficiency virus 2 ROD infected in human CD4+ T-cell assessed as inhibition of giant cell formation; format: functional, organism-based; settings: Human immunodeficiency virus 2, ISOLATE ROD
[11] = test system: Human immunodeficiency virus 1; assay: Antiviral activity against HIV1 3B/LA1 infected in HUT-78 cells co-cultured with uninfected human SupT1 CD4+ T-cell assessed as inhibition of envelope mediated cell-cell fusion after 16-20 hrs by cell-cell fusion assay; format: functional, organism-based; settings: Human immunodeficiency virus 1, 3B/LA1, HuT78
CCRF-CEM = assay: Cytotoxicity against human CEM cells up to 100 uM by MTS assay; format: cell-based
PBMC = assay: Cytotoxicity against human PBMC up to 100 uM by MTS assay; format: cell-based
[12] = Elimination half life in Wister rat at 4 mg/ kg, iv; format: ADME, organism-based; set-up: dose 4 mg/ kg, route intravenous; settings: Wistar, in vivo

pEC50 [1] | pEC50 [2] | pEC50 [3] | pEC50 [4] | pEC50 [5] | pEC50 [6] | pEC50 [7] | pEC50 [8] | Compound | pEC50 [9] | pEC50 [10] | pEC50 [11] | Activity (CCRF-CEM) | Activity (PBMC) | half-life [12] [h]
< 6.00 | 8.42 | < 6.00 | 9.40 | 8.59 | 9.52 | 8.44 | 8.43 | Cc1nnc(C(C)C)n1[C@H]1C[C@H]2CC[C@@H](C1)N2CC[C@H](NC(=O)C1CCC(F)(F)CC1)c1ccccc1 [MARAVIROC] | – | – | – | – | – | –
8.44 | < 6.00 | 7.73 | < 6.00 | < 6.00 | < 6.00 | < 6.00 | < 6.00 | c1cc(CN2CCCNCCNCCCNCC2)ccc1CN1CCCNCCNCCCNCC1 [PLERIXAFOR] | – | – | – | – | – | –

Compound | pEC50 [1] | pEC50 [2] | pEC50 [3] | pEC50 [4] | pEC50 [5] | pEC50 [6] | pEC50 [7] | pEC50 [8] | pEC50 [9] | pEC50 [10] | pEC50 [11] | Activity (CCRF-CEM) | Activity (PBMC) | half-life [12] [h]
enfuvirtide | 8.44 | 7.75 | 7.75 | 7.91 | 7.25 | 8.20 | 7.75 | 7.75 | 8.52 | 6.44 | 6.56 | Toxic | Toxic | 2.8
